Drawing on a melting point compilation (Tetko et al.; mined from patent text by program, amines drawn as free bases though some values may be those of a salt), this text covers melting point for 88 compounds.

Take `COc1ccc2c(CCN3CC=C(c4c[nH]c5cc(F)ccc45)CC3)coc2c1`: the melting point was 181 °C.
To `Cc1nc(CCCCCn2cnc3c2c(=O)n(C)c(=O)n3C)no1` belongs 160 to 162 °C; to `O=Cc1cc2c3ccccc3ccc2c2occc12`, 145 to 150 °C; to `CC(C)=CCn1c(=S)sc2c(=O)[nH]c(N)nc21`, over 320 °C.
To `CN1C(=O)C(N)=C(C#N)C1=O` belongs 284 °C; to `O=C(O)CCc1cn(Cc2ccc(OCc3ccncc3)cc2)cc1-c1ccccc1`, 124 to 125 °C; to `CC(C)c1cc(C(=O)O)cs1`, 64 to 67 °C.
The compound `O=[N+]([O-])C=C1CN=C(c2ccccc2)c2cc(Cl)ccc2N1` gave a melting point of 184 to 186 °C.
Consider `CC1(c2ccc(C3(O)CCCCCC3)cc2)OCCO1`, for which the melting point was 77 to 79 °C.
`Cc1cc(N2CCc3ncccc3C2)nc(N2CCCC2)c1NC(=O)Cc1cc(F)cc(F)c1`: the melting point was 203 to 206 °C.
`O=C(O)[C@@H](O)CNC(=O)C(F)(F)F`: the melting point fell in the range of 142 to 143 °C.
In the case of `CC(c1cc(C(C)(C)C)c(O)c(C(C)(C)C)c1)N(O)C(N)=O` (stereo not drawn) it was 162 to 164 °C; in that of `Cc1c(S(=O)(=O)Nc2ccc(-c3nc(C(=O)O)co3)cc2S(C)(=O)=O)sc2ccc(F)cc12`, 289 to 291 °C; in that of `Cn1ccc2ncnc(Oc3ccc(NC(=O)Nc4cccc(OC(F)(F)F)c4)c(Cl)c3)c21`, 171 to 174 °C.
In the case of `NC(=O)c1nc(-c2cccc(C3=Nc4ccc(-n5cccc5)cc4NC(=O)C3)c2)cs1` it was 267 to 269 °C; in that of `CN(C(c1ccccc1)c1ccccc1)S(=O)(=O)CC(N)=O`, 110 to 115 °C; in that of `N#Cc1nn(-c2c(Cl)cc(C(F)(F)F)cc2Cl)c(N)c1-c1ccccc1C(F)(F)F`, 161 °C.
To `O=C1OCCN1c1ccc(F)c([N+](=O)[O-])c1` belongs 135 °C; to `Clc1ccc2c(c1)C=C(n1ccnc1)CO2`, 118 to 120 °C; to `Cc1ccc(-c2nc(CCC(=O)c3ccc(Br)s3)c(C)o2)cc1`, 118 to 119 °C.
Consider `C#Cc1ccc2c(c1)C=C(C(=O)O)C(C(F)(F)F)N2` (stereo not drawn), for which the melting point fell in the range of 259 to 268 °C.
In the case of `CCC(O)CN1N=C(c2ccccc2)CC(O)C1=O` (stereo not drawn) it was 92 to 94 °C; in that of `COC(=O)c1cccc(S(=O)(=O)N2CCC(N3N=C(c4ccc(OC)c(OC)c4)C(C)(C)C3=O)CC2)c1`, 214 °C.
To `CNC(=O)NC1CCC(OC)c2sccc21` (stereo not drawn) belongs 152 to 159 °C; to `O=C(NC1CC1c1ccc(-c2ncn(-c3ccc(OC(F)(F)F)cc3)n2)cc1)Oc1ccccc1` (stereo not drawn), 171 to 173 °C.
For the compound `CCN(CC)CCNC(=O)c1cc(I)cc2c(F)ccnc12`, the melting point is 79 to 81 °C.
On to `COc1cc(C(=O)c2nc(N)c3ccccn23)ccc1[N+](=O)[O-]`, for which the melting point stood at 214 °C.
To `Cc1ccc(-c2ncn(-c3ccc(C(F)(F)C(F)(F)C(F)(F)F)cc3)n2)cc1` belongs 140 to 143 °C; to `Cc1ccc2c(c1)c(C)c(C(=O)OCc1ccccc1)n2CCC#N`, 71 °C.
`CCCC12CCC3C4CCC(=O)C=C4CCC3C1CCC2OCc1ccccc1` (stereo not drawn) gave a melting point of 198 to 200 °C.
To `CC(=O)Nc1nc2ccnc(-c3cccc(NS(=O)(=O)c4ccc(C)cc4)c3)n2n1` belongs 208 to 211 °C.
In the case of `CCOC(=O)c1c(-c2ccc(OC)c(OC)c2)c2cc(OC)c(OC)cc2[nH]c1=O` it was 273 to 276 °C; in that of `COc1ccc2[nH]c(C(=O)c3cc4ccccc4[nH]3)cc2c1`, 112 °C.
To `NC(=O)CCCCCc1nccc(NC(N)=NCC(F)(F)F)n1` belongs 179 to 181 °C.
Regarding `CCCC1COC(Cn2cncn2)(c2ccc(Oc3ccccc3)cc2)O1` (stereo not drawn), the melting point fell in the range of 68.5 to 71 °C.
To `CCc1nc2c(C)nn(C)c2c2nc(C)cn12` belongs 182 to 183 °C.
In the case of `Brc1ccc(N2CCC3(CCNCC3)CC2)nc1` it was 103 to 105 °C; in that of `O=C(O)CN(C(=O)c1cccc(C(F)(F)F)c1S)C1CCCC1`, 144 to 146 °C; in that of `CCOC(=O)c1cc(C=Cc2ccc(O)c(OC)c2)n[nH]1`, 99 to 101 °C.
On to `O=C1CO[C@@H]2CCCC[C@H]2O1` (relative stereo), for which the melting point lay in the range of 20 to 22 °C.
In the case of `CC(C)(O)c1ccc(S(N)(=O)=O)o1` it was 116 to 118 °C.
For `COC1=NS(=O)(=O)N=C1NCCCCC#CCN(C)C`, the melting point was in the range of 172 to 174 °C.
To `NC(=O)N(O)CC1CCCCCC1` belongs 110 to 112 °C; to `CCCCCCCC(=O)c1c(C(=O)CCCCCCC)c(-c2ccccc2)n(-c2ccc(C)cc2)c1-c1ccccc1`, 51 to 53 °C.
Consider `CCCc1c(OCCCOC2CC(CC(=O)O)Oc3ccccc32)ccc(C(C)=O)c1O` (stereo not drawn), for which the melting point lay in the range of 102 to 105 °C.
To `NS(=O)(=O)C1C=CC=CC1(CCNC(=O)C=Cc1cccs1)OCc1ccccc1` (stereo not drawn) belongs 177 °C.
`COc1ccc(S(=O)(=O)N2CCc3cccc(-c4ccc(CN(C)C)cc4)c32)cc1` displayed a melting point of 165 to 166 °C.
For `CCc1noc(-c2cn(-c3cccc(O)c3)cn2)n1`, the melting point lay within 214 to 215 °C.
Take `Nc1ncnc2c1c(-c1ccc(Oc3ccccc3)cc1)cn2C1CCOCC1`: the melting point fell in the range of 193 to 194 °C.
To `O=S(=O)(c1ccc2ccc(Br)cc2c1)N(Cc1ccccc1)Cc1ccccc1` belongs 127 to 129 °C.
To `C=C1c2ccccc2CCc2ccccc21` belongs 65.1 °C; to `CCc1cc2c(s1)-n1c(C)nnc1C(CCC(=O)Nc1ccccc1)N=C2c1ccc(Cl)cc1` (stereo not drawn), 183 to 185 °C; to `NC(=O)CCCN(CCCC1CCCCC1)C(=O)Nc1ccccc1`, 104 to 106 °C.
To `COC1=C(OC)C(=O)C2=C(CC(CCCOc3ccc(C(=O)N(C)C)cc3)C2)C1=O` belongs 100 to 102 °C; to `OC1OC2C(Br)C3CC1C2C3` (stereo not drawn), 61 °C.
Compound `COc1ccc(-n2nc(C(=O)NC(C)(C)C)c3c2C2CCC3C2)cc1` (stereo not drawn) had a melting point of 145 to 147 °C.
To `Cn1c(CC(=O)O)ccc1C(=O)c1cccc(Cl)c1` belongs 165 °C; to `CCCCCc1ccc(-c2ccc(-c3c(C(=O)OC)c4c(c5ccccc35)OC(c3ccccc3)(c3ccc(N(CC)CC)cc3)C=C4)cc2)cc1` (stereo not drawn), 177 to 178 °C.
In the case of `C=C(Cl)CSC1=C(O)CC(C)(C)CC1=O` it was 103 to 106 °C; in that of `O=C(C1CC1)N1CC2CC2(c2ccccc2)C1` (stereo not drawn), 164 to 165 °C; in that of `CC(C)OP(=O)(Cc1c(C(C)(C)C)cc(O)cc1C(C)(C)C)OC(C)C`, 100 °C.
In the case of `COCc1ccc(N=C2NCCN2)c(Cl)c1` it was 108 to 110 °C; in that of `O=C(O)COc1ccc(OC(F)(F)F)cc1C(=O)NCc1cccc([N+](=O)[O-])c1`, 154 to 156 °C; in that of `COc1ccc(C(=O)c2cc(-c3cccnc3)c(N3CCOCC3)s2)cc1`, 149 °C.
The compound `CCOc1nc2ccccc2nc1N(CC)C(=O)N1CCN(c2cc(C)cc(C)c2)CC1` returned a melting point of 142 to 144 °C.
To `Cc1[nH]c(C(=O)NCC(=O)O)c(C)c1-c1nc2ccc(C(=O)c3ccccc3)cc2[nH]1` belongs 274 to 276 °C; to `COC(=O)CCc1oc(=O)[nH]c1-c1ccc(Cl)cc1`, 147 to 148 °C; to `CCCCCCCCSc1nc(Nc2cc(C)c(O)c(C(C)(C)C)c2)nc(NC2CC(C)(C)NC(C)(C)C2)n1`, 133 °C.
Consider `N#Cc1ccc(C(O)C23CCCN2C(=O)N(c2cc(Cl)cc(Cl)c2)C3=O)cc1` (stereo not drawn), for which the melting point came to 184 °C.
To `O=C1CCCN1c1cn(-c2cccnc2)nc1Cl` belongs 109 to 110 °C; to `CN(c1cccc(C=C2c3ccccc3CCc3ccccc32)c1)S(C)(=O)=O`, 124 °C.
To `COc1ccc(C2=NN(C3CCOCC3)C(=O)[C@H]3CC=CC[C@@H]23)cc1OC1CCCC1` (relative stereo) belongs 116 to 117 °C; to `Cc1noc(NC(=O)N2CCN(c3ccnc(-c4ccc(F)cc4F)n3)CC2)c1C`, 207 to 208 °C; to `COc1ccc2nc(NC(=O)COC(=O)C(C)C)sc2c1`, 141 to 142 °C.
In the case of `CCCCn1c(=O)n(CCC)c(=O)c2c3n(nc21)CCCCN3C` it was 63 to 65 °C.
On to `O=C(NCCCCCn1ccnc1)c1ccc(Cl)nc1`, for which the melting point fell in the range of 110 to 112 °C.
`CC(C)CC(NC(=O)C(C)S)C(=O)O` (stereo not drawn) gave a melting point of 77 to 84 °C.
`O=C(NCCCCCCOCc1ccc(OCc2ccccc2)cc1)c1cc(-c2cccc(C(F)(F)F)c2)c(O)c(-c2cccc(C(F)(F)F)c2)c1`: the melting point is 127 to 130 °C.
On to `CC(C)(C)NC(=O)[C@@H]1CN(NC(=O)OC(C)(C)C)CCN1NC(=O)Cc1ccccc1`, for which the melting point lay in the range of 134 to 135 °C.
In the case of `Cc1[nH]cnc1C(=O)OCc1ccccc1` it was 203 to 205 °C.
Compound `COc1cc2c(cc1Nc1ncc(C(F)(F)F)c(Nc3ccc(N4CCOCC4)cc3OC)n1)N(C)C(=O)OCC2` yielded a melting point of 221 to 223 °C.
In the case of `CC(C)[C@@H](CO)Nc1nc(Nc2cccc(NS(C)(=O)=O)c2)nc2[nH]ccc12` it was 106 to 109 °C.
In the case of `COc1cc(C)cc(OC)c1C1=NC(NC(=O)C(N)Cc2ccccc2)C(=O)N(C)c2ccccc21` (stereo not drawn) it was 165 °C.
In the case of `CCC1(CC)Oc2cc(OC)c(C#N)cc2[C@@H](N2CCCC2=O)[C@@H]1O` (relative stereo) it was 193 to 195 °C; in that of `CC(C)(C)c1cc(CN)nn1-c1ccc(S(C)(=O)=O)cc1`, 138 to 145 °C.
`O=S1(=O)N[C@@H](c2cccc(Cl)c2)c2ccccc21` registered a melting point of 137 to 138 °C.
In the case of `CCN(CC)C(=O)Cc1ccc(C(=O)c2ccc(Cl)cc2)n1C` it was 82 to 85 °C.
To `CC(C)SSCC12CCC(O)CC1=CCC1C3CCC(=O)C3(C)CCC12` (stereo not drawn) belongs 168 to 169 °C.

Broadly, the melting point is the temperature of the solid-liquid transition.
